Laboratory results taken from PubChem BioAssay (NCI).
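1) Cells in 96-well plates. 2) Compound, 48 h, 5 concentrations. 3) Linear interpolation between surrounding doses. 4) Unreached endpoint = highest concentration. GI50: concentration for 50% inhibition of growth. TGI denotes the concentration required for complete inhibition of growth.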

What was measured:
Assay in all cases: inhibition of tumour cell growth, NCI panel, 48 h
[1] = test system: 786-0 renal
[2] = test system: A498 renal
[3] = test system: A549 NSCLC
[4] = test system: ACHN renal
[5] = test system: BT-549 breast
[6] = test system: CAKI-1 renal
[7] = test system: CCRF-CEM leukemia
[8] = test system: COLO 205 colon
[9] = test system: DU-145 prostate
[10] = test system: EKVX NSCLC
[11] = test system: HCC-2998 colon
[12] = test system: HCT-116 colon
[13] = test system: HCT-15 colon
[14] = test system: HL-60(TB) leukemia
[15] = test system: HOP-62 NSCLC
[16] = test system: HOP-92 NSCLC
[17] = test system: HS 578T breast
[18] = test system: HT29 colon
[19] = test system: IGROV1 ovarian
[20] = test system: K-562 leukemia
[21] = test system: KM12 colon
[22] = test system: LOX IMVI melanoma
[23] = test system: M14 melanoma
[24] = test system: MALME-3M melanoma
[25] = test system: MCF7 breast
[26] = test system: MDA-MB-231 breast
[27] = test system: MDA-MB-435
[28] = test system: MDA-MB-468 breast
[29] = test system: MOLT-4 leukemia
[30] = test system: NCI-H226 lung
[31] = test system: NCI-H23 lung
[32] = test system: NCI-H460 lung
[33] = test system: NCI-H522 lung
[34] = test system: NCI/ADR-RES ovarian
[35] = test system: OVCAR-3 ovarian
[36] = test system: OVCAR-4 ovarian
[37] = test system: OVCAR-5 ovarian
[38] = test system: OVCAR-8 ovarian
[39] = test system: PC-3 prostate
[40] = test system: RPMI-8226 leukemia
[41] = test system: RXF 393 renal
[42] = test system: SF-268 CNS
[43] = test system: SF-295 CNS
[44] = test system: SF-539 CNS
[45] = test system: SK-MEL-2 melanoma
[46] = test system: SK-MEL-28 melanoma
[47] = test system: SK-MEL-5 melanoma
[48] = test system: SK-OV-3 ovarian
[49] = test system: SN12C renal
[50] = test system: SNB-19 CNS
[51] = test system: SNB-75 CNS
[52] = test system: SR leukemia
[53] = test system: SW-620 colon
[54] = test system: T-47D breast
[55] = test system: TK-10 renal
[56] = test system: U251 CNS
[57] = test system: UACC-257 melanoma
[58] = test system: UACC-62 melanoma
[59] = test system: UO-31 renal

SMILES: Fc1ccccc1CNc1nc(SCCN2CCOCC2)nc2c1cnn2CC(Cl)c1ccc(Br)cc1 (stereo unspecified)
- GI50 [1]: 3.31 µM
- TGI [1]: 30.6 µM
- GI50 [2]: 8.94 µM
- TGI [2]: > 100 µM
- GI50 [3]: 4.06 µM
- TGI [3]: > 100 µM
- GI50 [4]: 4.39 µM
- TGI [4]: > 100 µM
- GI50 [5]: 20.9 µM
- TGI [5]: > 100 µM
- GI50 [6]: 3.83 µM
- TGI [6]: > 100 µM
- GI50 [7]: 3.34 µM
- TGI [7]: > 100 µM
- GI50 [8]: 2.8 µM
- TGI [8]: 8.12 µM
- GI50 [9]: 49.6 µM
- TGI [9]: > 100 µM
- GI50 [10]: 5.28 µM
- TGI [10]: > 100 µM
- GI50 [11]: 3.94 µM
- TGI [11]: > 100 µM
- GI50 [12]: 3.67 µM
- TGI [12]: > 100 µM
- GI50 [13]: 1.69 µM
- TGI [13]: 3.95 µM
- GI50 [14]: 4.1 µM
- TGI [14]: > 100 µM
- GI50 [15]: 7.35 µM
- TGI [15]: > 100 µM
- GI50 [16]: 3.96 µM
- TGI [16]: > 100 µM
- GI50 [17]: 3.6 µM
- TGI [17]: > 100 µM
- GI50 [18]: 1.47 µM
- TGI [18]: 3.39 µM
- GI50 [19]: > 100 µM
- TGI [19]: > 100 µM
- GI50 [20]: 2.55 µM
- TGI [20]: > 100 µM
- GI50 [21]: 3.74 µM
- TGI [21]: > 100 µM
- GI50 [22]: 2.6 µM
- TGI [22]: 7.91 µM
- GI50 [23]: 4.19 µM
- TGI [23]: > 100 µM
- GI50 [24]: 2.54 µM
- TGI [24]: 6.89 µM
- GI50 [25]: 3.58 µM
- TGI [25]: > 100 µM
- GI50 [26]: 3.6 µM
- TGI [26]: > 100 µM
- GI50 [27]: 4.98 µM
- TGI [27]: > 100 µM
- GI50 [28]: 2.26 µM
- TGI [28]: 7 µM
- GI50 [29]: 3.46 µM
- TGI [29]: > 100 µM
- GI50 [30]: 3.52 µM
- TGI [30]: > 100 µM
- GI50 [31]: 7.76 µM
- TGI [31]: > 100 µM
- GI50 [32]: 3.99 µM
- TGI [32]: > 100 µM
- GI50 [33]: 5.16 µM
- TGI [33]: > 100 µM
- GI50 [34]: 4.24 µM
- TGI [34]: > 100 µM
- GI50 [35]: 37.4 µM
- TGI [35]: > 100 µM
- GI50 [36]: 3.49 µM
- TGI [36]: > 100 µM
- GI50 [37]: > 100 µM
- TGI [37]: > 100 µM
- GI50 [38]: 6.36 µM
- TGI [38]: > 100 µM
- GI50 [39]: 3.73 µM
- TGI [39]: > 100 µM
- GI50 [40]: 2.67 µM
- TGI [40]: 8.25 µM
- GI50 [41]: 1.43 µM
- TGI [41]: 5.27 µM
- GI50 [42]: 6.08 µM
- TGI [42]: > 100 µM
- GI50 [43]: 3.04 µM
- TGI [43]: > 100 µM
- GI50 [44]: 2.29 µM
- TGI [44]: 6.94 µM
- GI50 [45]: 2.9 µM
- TGI [45]: 11.7 µM
- GI50 [46]: 4.99 µM
- TGI [46]: > 100 µM
- GI50 [47]: 2.87 µM
- TGI [47]: 10.7 µM
- GI50 [48]: > 100 µM
- TGI [48]: > 100 µM
- GI50 [49]: 5.93 µM
- TGI [49]: > 100 µM
- GI50 [50]: 7.08 µM
- TGI [50]: > 100 µM
- GI50 [51]: 2.71 µM
- TGI [51]: > 100 µM
- GI50 [52]: 4.8 µM
- TGI [52]: > 100 µM
- GI50 [53]: 2.05 µM
- TGI [53]: 5.39 µM
- GI50 [54]: 2.87 µM
- TGI [54]: > 100 µM
- GI50 [55]: > 100 µM
- TGI [55]: > 100 µM
- GI50 [56]: 5.93 µM
- TGI [56]: > 100 µM
- GI50 [57]: 3.38 µM
- TGI [57]: 79.1 µM
- GI50 [58]: 2.09 µM
- TGI [58]: 5.23 µM
- GI50 [59]: 3.13 µM
- TGI [59]: > 100 µM

SMILES: CCCCN1C(=O)/C(=C\C(=O)c2cc3ccccc3oc2=O)c2ccccc21
- GI50 [1]: 18 µM
- TGI [1]: 31.9 µM
- GI50 [2]: > 100 µM
- TGI [2]: > 100 µM
- GI50 [3]: > 100 µM
- TGI [3]: > 100 µM
- GI50 [4]: 13.4 µM
- TGI [4]: 26.1 µM
- GI50 [5]: 19.4 µM
- TGI [5]: 70.1 µM
- GI50 [6]: 14.2 µM
- TGI [6]: 27.8 µM
- GI50 [7]: 4.26 µM
- TGI [7]: 24.2 µM
- GI50 [8]: 17 µM
- TGI [8]: 31.1 µM
- GI50 [9]: 16.7 µM
- TGI [9]: 33.2 µM
- GI50 [10]: 15.5 µM
- TGI [10]: 32 µM
- GI50 [11]: > 100 µM
- TGI [11]: > 100 µM
- GI50 [12]: 16.3 µM
- TGI [12]: 31.1 µM
- GI50 [13]: 15.6 µM
- TGI [13]: 30.7 µM
- GI50 [14]: 3.06 µM
- TGI [14]: 11.9 µM
- GI50 [15]: > 100 µM
- TGI [15]: > 100 µM
- GI50 [16]: 13 µM
- TGI [16]: 27.7 µM
- GI50 [17]: 20.7 µM
- TGI [17]: > 100 µM
- GI50 [18]: 20.3 µM
- TGI [18]: 41.2 µM
- GI50 [19]: 24.5 µM
- TGI [19]: 94.8 µM
- GI50 [20]: 11.6 µM
- TGI [20]: 84.7 µM
- GI50 [21]: > 100 µM
- TGI [21]: > 100 µM
- GI50 [22]: 15.2 µM
- TGI [22]: 28.7 µM
- GI50 [23]: 14.8 µM
- TGI [23]: 29.3 µM
- GI50 [24]: 13.7 µM
- TGI [24]: 26.7 µM
- GI50 [25]: 12.6 µM
- TGI [25]: 28.7 µM
- GI50 [26]: 14.3 µM
- TGI [26]: 27.6 µM
- GI50 [27]: 17.6 µM
- TGI [27]: 41.6 µM
- GI50 [28]: 4.5 µM
- TGI [28]: 17.8 µM
- GI50 [29]: 22.4 µM
- TGI [29]: 64 µM
- GI50 [30]: 14.4 µM
- TGI [30]: 31.7 µM
- GI50 [31]: 27.4 µM
- TGI [31]: > 100 µM
- GI50 [32]: > 100 µM
- TGI [32]: > 100 µM
- GI50 [33]: 14.3 µM
- TGI [33]: 28.7 µM
- GI50 [34]: 22.9 µM
- TGI [34]: 64.3 µM
- GI50 [35]: 15.2 µM
- TGI [35]: 29.7 µM
- GI50 [36]: 16.9 µM
- TGI [36]: 35.4 µM
- GI50 [37]: 30.6 µM
- TGI [37]: > 100 µM
- GI50 [38]: 18.3 µM
- TGI [38]: 47.5 µM
- GI50 [39]: 32.2 µM
- TGI [39]: > 100 µM
- GI50 [40]: 19.9 µM
- TGI [40]: 54.4 µM
- GI50 [41]: 15.7 µM
- TGI [41]: 29.6 µM
- GI50 [42]: 16.9 µM
- TGI [42]: 36.3 µM
- GI50 [43]: > 100 µM
- TGI [43]: > 100 µM
- GI50 [44]: 16.2 µM
- TGI [44]: 30 µM
- GI50 [45]: 52 µM
- TGI [45]: > 100 µM
- GI50 [46]: 15.5 µM
- TGI [46]: 29.1 µM
- GI50 [47]: 48.7 µM
- TGI [47]: > 100 µM
- GI50 [48]: > 100 µM
- TGI [48]: > 100 µM
- GI50 [49]: 14.7 µM
- TGI [49]: 30 µM
- GI50 [50]: > 100 µM
- TGI [50]: > 100 µM
- GI50 [51]: 19 µM
- TGI [51]: > 100 µM
- GI50 [52]: 23 µM
- TGI [52]: 86.1 µM
- GI50 [53]: 14.3 µM
- TGI [53]: 29.7 µM
- GI50 [54]: 14 µM
- TGI [54]: 28.7 µM
- GI50 [55]: 20.9 µM
- TGI [55]: 35.8 µM
- GI50 [56]: > 100 µM
- TGI [56]: > 100 µM
- GI50 [57]: 14.7 µM
- TGI [57]: 31.3 µM
- GI50 [58]: 14.6 µM
- TGI [58]: 29.7 µM
- GI50 [59]: 11.4 µM
- TGI [59]: 23.7 µM
